Experimental data taken from patent publication US20210308077A1, “COMBINATIONS INCLUDING BETA-ADRENORECEPTOR AGONISTS FOR TREATMENT OF PARKINSON`S DISEASE AND MOVEMENT DISORDERS” (The Brigham and Women`s Hospital, Inc., priority 2017, published 2021).
Structures can show the parent of a compound that is named as a salt.

Tests used:
SNCA mRNA [1] = assay: endogenous SNCA mRNA expression in SK-N-MC neuroblastoma cells (screening, replication, confirmation; qPCR); format: cell-based, human; details: for relative SNCA mRNA abundance, confirmation stage: 10 μM for 48 hours, vs vehicle control
Procedure: Human neuroblastoma SK-N-MC cells were acquired from American Type Culture Collection (ATCC). Cells were cultured at 37° C. in 5% CO2 in DMEM/F12 supplemented with 10% fetal bovine serum (FBS) and 100 units per ml penicillin and streptomycin. The drug library was obtained from the Laboratory for Drug Discovery in Neurodegeneration (LDDN), Harvard NeuroDiscovery Center, Boston, Mass. The drug library consisted of approximately 1,126 small molecules. About 586 of the compounds were from Prestwick Chemical's (Illkirch, France) library, a unique collection of mostly off-patent small organic molecules, 90% being marketed drugs and 10% bioactive alkaloids or related substances. About 400 compounds were from the SPECS collection (available on the world wide web at.specs.net). 140 compounds generated in house by the LDDN were also included in the library. Compounds for the screening were stored as DMSO stocks. All drugs used for Confirmation Assay were purchased from Sigma (St. Louis, Mo.).
Approximately 2×10^4low passage SK-N-MC cells were seeded per well in 384-well cell culture plates for 24 hours. Compounds were then transferred into each well (final concentration 1 μM) by using a BioMekFX (Beckman Coulter) equipped with a 384-channel pipetting head. After 48 hours in cell culture incubator, cells were washed once in cold phosphate-buffered saline (PBS) by using BioTek ELx405 select CW plate washer and then lysed at room temperature (22-24° C.) with lysis buffer (Applied Biosystems) using the Cell-to-CT procedures according to the manufacturer's instructions (Applied Biosystems). After 5 min, lysis was terminated by incubation with stop solution (Applied Biosystems). 11 μL of each lysate were transferred to 384-well plates for RT in a total volume of 25 μl. 4 μL of RT reaction were then transferred to new 384-well plates for qPCR.
Using the Cell-to-CT kit (Applied Biosystems) we performed expression analysis directly from SK-N-MC neuroblastoma cells cultured in 384-well plates through in situ cDNA synthesis. In this miniaturized assay, high copy numbers of SNCA and of endogenous controls were detected as indicated by raw cycle threshold values of 25.11±0.02 (mean CT value±SEM) and 20.2±0.02 for SNCA and Ubiquitin C (UBC), respectively. Technical variation (using identical cDNA loaded in multiple wells) and biological variation (cDNA synthesized in situ in each of 384 wells of cultured SK-N-MC cells treated with DMSO) were low, with coefficients of variation of 1% and 5.2% respectively. At least ten DMSO-treated controls were included on each 384-well plate as negative external control and calibrator. An equal amount of cDNA derived from Universal Reference RNA was spotted on all plates as plate-to-plate control. Control reactions lacking template or reverse transcription were assayed for contamination with genomic DNA.
41 compounds were forwarded into the Replication Assay. For each compound eight wells were treated with drug and compared to eight wells treated with DMSO alone. The Cell-to-CT procedure was employed using two new reference genes, ribosomal protein L13 (RPL13) and glucuronidase beta (GUSB) (instead of UBC) to control for input RNA. […] 10 compounds met these criteria and were forwarded from the Replication into the Confirmation Assay.
The ten forwarded compounds were used in the Confirmation Assay. For each compound ten wells were treated with drug and compared to ten wells treated with DMSO alone. RNA was extracted using TRIzol® following the manufacturers protocol (Life Technologies). Freshly ordered compounds were used. […] Six compounds met these criteria and were forwarded from the Confirmation Assay to the ELISA Assay stage (see below).
Total RNA from flash-frozen mice brain tissue, rodent primary cells, human neuroblastoma cells and iPSC-derived neuronal cells was isolated using TRIzol® (Life Technologies) following the manufacturer's protocol. […]

α-synuclein protein = α-synuclein protein in rat primary cortical neurons (ELISA); format: cell-based; details: metaproterenol 5 μM, clenbuterol 20 μM, salbutamol 10 μM, 72 hours
Procedure: (§1) Primary cortical cultures were generated from E18 Sprague-Dawley rat embryos. The cortical region was dissected out in Hank's Balanced Salt Solution buffered with Hepes and dissociated with 0.125% trypsin (Invitrogen) for 17 min at 37 ° C., followed by trituration. Dissociated cells were plated at a density of 5×10^5 cells/well or 2.5×10^5 cells/well in 12-well or 24-well plates, respectively precoated with poly-D lysine (100 μg/mL). The cells were cultured in Neurobasal medium with B-27 supplement (Invitrogen) and glutamax and gentamycin. Half of the medium was changed every 4 days. Cortical neurons were treated with β2AR agonists 10 days post plating. They were then harvested 48 hours post-treatment for mRNA extraction and 72 hours post-treatment for protein extraction.
Protein lysis buffer containing 320 mM sucrose, 5 mM NaF, 1 mM Na3VO4, 10 mM Tris (pH 7.4), 1 mM EGTA, and 1 mM EDTA was used for mice brain tissue lysis. 100 μL of cold extraction buffer was added to each sample and homogenized in a dounce homogenizer. […] Total protein concentrations were determined by BCA assay (Thermo Scientific) according to the manufacturer's instructions. Total α-synuclein was quantified using an α-synuclein-specific sandwich ELISA.
An α-synuclein-specific Meso Scale Discovery (MSD) ELISA assay (described in Ref. (11)) was utilized for endogenous α-synuclein protein measurement. […] After samples were emptied and plate washed 3 times with TBS-T, sulfo-tagged SOY1 mAb (detection Ab) (generated using Sulfo-Tag-NHS-Ester (MSD) diluted in blocking buffer (6.7 ng/μl), was added to the plate (30 μl volumes/well) and shaken for 1 hour at room temperature. Following 3 washes, MSD Read (2×, diluted in ultrapure water) buffer was added and the plates were immediately measured using a MSD Sector 2400 imager. For confirmatory studies, an second α-synuclein-specific ELISA implementation was used employing a different, extensively published anti-α-synuclein detection antibody (Syn-1 mAb) and a different anti-α-synuclein capture antibody (1H9, courtesy Dr. Selkoe).

Snca mRNA [2] = assay: Snca mRNA in rat primary cortical neurons; format: cell-based; details: metaproterenol 5 μM, clenbuterol 20 μM, salbutamol 10 μM, 48 hours
Procedure: as §1
Total RNA from flash-frozen mice brain tissue, rodent primary cells, human neuroblastoma cells and iPSC-derived neuronal cells was isolated using TRIzol® (Life Technologies) following the manufacturer's protocol. RNA concentration was measured using NanoDrop spectrophotometer (Thermo Fisher Scientific, Wilmington, De.). 2 μg of total RNA was reverse transcribed into cDNA using the High Capacity cDNA Reverse Transcription Kit from Applied Biosystems. Quantitative PCR was performed using TaqMan Universal PCR Master Mix (Applied Biosystems) on an ABI 7900HT instrument (Applied Biosystems) as described previously (31). For mouse brain tissue and rat primary cortical neuron samples, rodent-specific TaqMan Assay on-demand primers and probes were used to assay the relative abundance of target genes, and rodent Rp113 was used as a reference gene to normalize for RNA loading. Similar results were obtained when Actb or Ubc were used as controls for input RNA. For human neuroblastoma and iPSC-derived neuron samples, human TaqMan Assay on-demand probes were used to assay the relative abundance of target genes, and the geometric mean of the three human reference genes RPL13, GUSB and UBC was used to normalize for RNA loading. Expression values were analyzed using the comparative threshold cycle method (31).

[3] = tested on: 6-hydroxydopamine rat model of PD; details: 6-hydroxydopamine rat model of PD (reference 9); cited from earlier work
H3K27Ac = assay: immunoblot with antibody against H3K27Ac in SK-N-MC cells; format: cell-based, human; details: vs vehicle-treated cells
Procedure: For western blot analysis, protein samples (20 μg) were run on a 4-20% gradient SDS-polyacrylamide gel (Biorad) and transferred onto a polyvinylidene fluoride (PVDF) membrane filter (0.2 μm; Biorad) using an electroblot apparatus (Bio-Rad, Hercules, Calif.) at 100V for 1 h in transfer buffer (25 mM Tris-HCl, 192 mM glycine, 0.1% SDS, 20% (v/v) methanol). The membrane was incubated in blocking solution (50 mM Tris-HCl, 200 mM NaCl, 1 mM MgCl2, pH 7.4) containing 5% non-fat dry milk powder for 1 hour at room temperature. The membrane was processed through sequential incubations with primary antibody overnight at 4° C. followed by incubation with horseradish peroxidase-conjugated species specific secondary antibody at 1:250 dilutions (Thermo Scientific Pierce). Immunoreactive proteins on the membrane were visualized using the SuperSignal™ West Pico Chemiluminescent kit (Thermo Scientific Pierce). Scanned western blots were analyzed using ImageJ software, version 1.47. Pictures were inverted and usually the background signal from an empty lane was subtracted to obtain specific signals for each lane.

[4] = tested on: H3K27 acetylation of SNCA promoter and enhancers; assay: chromatin immunoprecipitation for H3K27ac at SNCA promoter and enhancers in SK-N-MC cells; format: cell-based, human; details: clenbuterol 10 μM, valproic acid 100 μM, propranolol 100 μM, vs vehicle
Procedure: Chromatin immunoprecipitation (ChIP) assays were performed using the Simple ChIP Enzymatic Chromatin IP kit protocol as recommended by the manufacturer (Cell Signaling Technology) with slight modifications. Briefly, ChIPs were performed on asynchronously growing SK-N-MC cells treated with clenbuterol (10 μM), valproic acid (100 μM) or propranolol (100 μM). Cross-linking was carried out with 1% formaldehyde for 10 min at room temperature. Cross-linking was subsequently quenched by adding glycine to a final concentration of 1× for 5 min. Cells were collected and washed twice with PBS, then resuspended in 2 mL of lysis buffer (as described in the protocol). After 10 min on ice, cells were treated with micrococcal nuclease and then sonicated to obtain DNA fragments of ˜500 bp as determined by agarose gel electrophoresis with ethidium bromide staining. Protein-DNA complexes were isolated by centrifugation at 10,000 rpm for 10 min. Supernatants with protein-DNA complexes were incubated overnight with rabbit polyclonal antibody directed against acetylated H3K27 (Abcam). Normal rabbit IgG was used as a negative control and Histone H3 rabbit mAb (ChIP formulated) as positive control. 2% of sample was saved as input. Antibody-protein-DNA complexes were further incubated for 2 hours with 30 μl of ChIP-grade Protein G magnetic beads to isolate antibody bound fractions of chromatin. Immuno-complexes were washed with the buffers provided and as described in the kit. Protein-DNA complexes were eluted and cross-links of pull down fractions and inputs (2% of total IP fraction) were reversed by 2 hours incubation in Proteinase K and 5 M NaCl at 65° C. […] 2 μl of immunoprecipitated DNA was analyzed by qPCR using a Power SYBR Green PCR Master mix (Applied Biosystems by Life technologies) on an ABI 7900HT instrument (Applied Biosystems) with the following temperature profile: 3 min of enzyme activation at 95° C. followed by 40 cycles of 95° C. for 15 s and 60° C. for 60 s. Sample from three independent immunoprecipitation assays were analyzed.

SMILES | relative SNCA mRNA abundance, confirmation stage (SNCA mRNA [1]; SK-N-MC cells) | reduction of SNCA expression in the screening stage (SNCA mRNA [1]; SK-N-MC cells, 48 hours, vs DMSO, final concentration 1 μM) | SNCA mRNA expression, dose dependence (SNCA mRNA [1]; SK-N-MC cells, indicated doses, 48 hours) | α-synuclein protein levels (α-synuclein protein) | endogenous Snca mRNA (Snca mRNA [2]) | dopaminergic neurodegeneration [3] | relative SNCA mRNA abundance (with H3K27Ac blot) (SNCA mRNA [1]; SK-N-MC cells, vs vehicle-treated cells) | effect of co-treatment on the β2AR agonist effect on SNCA expression (SNCA mRNA [1]; co-treatment of clenbuterol with valproic acid) | H3K27Ac levels (Western blotting) (H3K27Ac) | H3K27 acetylation across SNCA promoter and two intronic enhancers (ChIP) [4]
CC(C)NCC(O)c1cc(O)cc(O)c1 (centres unmarked) [metaproterenol] | reduced SNCA mRNA abundance | more than 35% | lowered SNCA mRNA expression in a dose-dependent manner | significantly, but modestly, reduced | significantly, but modestly, reduced | – | – | – | – | –
Nc1nc2ccc(OC(F)(F)F)cc2s1 [riluzole hydrochloride] | fourth hit | – | – | – | – | attenuates dopaminergic neurodegeneration | – | – | – | –
CCCC(CCC)C(=O)O [valproic acid] | – | – | – | – | – | – | increase | abrogated the β2AR agonist effect on SNCA expression | increase | increased H3K27 acetylation
